Measurements taken from paper PMC12016938, “A small molecule PKCε inhibitor reduces hyperalgesia induced by paclitaxel or opioid withdrawal” (JCI Insight, 2025).
“And” between values parts separate entries of the source, which are not always exact repeats. Identical values can stand only once.

Columns and labels:
PKCε = target: T1, PKCε (Homo sapiens, UniProt Q02156); experiment: PKCε activity with increasing ATP and CP612 (ATP competition); type: biochemical; parameters: His; AVI; made in house; host or cells: Sf9 cells; details: for Kinase activity (% control): PKCε, log [CP612]
T1 sequence (Q02156 1-737): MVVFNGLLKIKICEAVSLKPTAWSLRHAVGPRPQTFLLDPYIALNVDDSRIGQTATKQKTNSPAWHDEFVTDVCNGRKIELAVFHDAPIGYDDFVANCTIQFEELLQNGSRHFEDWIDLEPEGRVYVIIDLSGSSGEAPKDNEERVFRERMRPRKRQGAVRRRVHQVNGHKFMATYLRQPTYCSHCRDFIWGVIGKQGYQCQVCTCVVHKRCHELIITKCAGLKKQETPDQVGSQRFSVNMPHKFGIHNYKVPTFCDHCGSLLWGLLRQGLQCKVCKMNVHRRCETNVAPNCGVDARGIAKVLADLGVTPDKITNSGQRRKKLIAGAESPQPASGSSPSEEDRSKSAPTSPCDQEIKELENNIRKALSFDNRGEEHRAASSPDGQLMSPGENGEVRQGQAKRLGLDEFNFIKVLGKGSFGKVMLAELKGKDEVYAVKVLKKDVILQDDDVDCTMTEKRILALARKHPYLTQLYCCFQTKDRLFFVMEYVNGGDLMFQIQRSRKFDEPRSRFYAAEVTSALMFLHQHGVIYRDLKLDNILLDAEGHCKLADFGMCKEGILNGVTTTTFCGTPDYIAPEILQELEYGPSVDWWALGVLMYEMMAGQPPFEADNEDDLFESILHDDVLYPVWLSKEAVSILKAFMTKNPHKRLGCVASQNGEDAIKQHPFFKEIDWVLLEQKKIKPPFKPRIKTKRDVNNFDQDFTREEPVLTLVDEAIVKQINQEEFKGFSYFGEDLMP
Method: Therefore, we assayed PKCε activity with increasing concentrations of ATP and in the presence of increasing concentrations of CP612.
Kinase assays. CP612 was assayed against His-AVI–tagged human PKCε (1 nM) produced in Sf9 cells, and ROCK1 (Carna Biosciences; 5 nM) using the Lance-FRET kinase assay system (PerkinElmer Revvity). Other human recombinant PKCs (SignalChem Biotech) were assayed in triplicate at the following concentrations: PKCβII 1.6 nM, PKCγ 500 pM, PKCδ 5 nM, PKCθ 500 pM, and PKCζ 500 pM. PKCs were incubated in a 15 μL reaction volume with kinase buffer (20 mM Tris-HCL [pH 7.4], 10 mM MgCl2, 0.25 mM EGTA, 0.1 mg/mL BSA, and 0.15% Triton X-100), 50 nM ULight-labeled CREBtide […] (PerkinElmer, TRF0107, Revvity), and test compound. […] after 60 minutes with 10 μL of 2.5× Stop Solution/Detection Mix containing 20 mM EDTA and 4 nM LANCE Ultra Europium anti–phospho-[…] peptide antibody (PerkinElmer, TRF0200, Revvity). After incubation at 27°C for another 60 minutes, phosphorylation was detected using a FlexStation 3 Microplate Reader (Molecular Devices) in LANCE TR-FRET mode (excitation = 340 nm, emission = 665 nm) and expressed as relative fluorescence units (RFU). The percentage of inhibition was calculated as: (signal without test compound − signal with test compound)/(signal without test compound − signal without ATP) × 100. The Z’ factor for this assay ranged between 0.72 and 0.86.

Plasma stability = details: for % Absolute: human plasma (hPL); for half-life: human
Method: Plasma stability. To determine in vitro plasma stability, we calculated in vitro plasma half-life. We incubated test substances (0.6 μL) with 60 μL human plasma (BioIVT) in quadruplicate at 37°C.

N[C@H](CNC(=O)C1(c2ccc(Cl)cc2)CCCC1)c1ccc(C(=O)Nc2ccncc2)cc1 [CP612]
Increase of EC50 for ATP (PKCε; 300 nM CP612): 40 fold | Kinase activity (% control) (PKCε; [ATP] 0.183 µM, M -8.523, 0.183 µM): 47.534 % control and 24.462 % control and 35.552 % control | Kinase activity (% control) (PKCε; [ATP] 0.73 µM, M -6, 0.73 µM): 0.864 % control and 1.238 % control | Kinase activity (% control) (PKCε; [ATP] 2.93 µM, M -5.523, 2.93 µM): 0.280 % control and 0.321 % control | Kinase activity (% control) (PKCε; [ATP] 2.93 µM, M -6, 2.93 µM): 1.498 % control and 2.443 % control | Kinase activity (% control) (PKCε; [ATP] 2.93 µM, M -6.523, 2.93 µM): 4.077 % control and 4.559 % control | Kinase activity (% control) (PKCε; [ATP] 2.93 µM, M -7, 2.93 µM): 8.910 % control and 10.659 % control | Kinase activity (% control) (PKCε; [ATP] 2.93 µM, M -7.523, 2.93 µM): 20.262 % control and 21.135 % control | Kinase activity (% control) (PKCε; [ATP] 2.93 µM, M -8, 2.93 µM): 38.517 % control and 38.535 % control | Kinase activity (% control) (PKCε; [ATP] 2.93 µM, M -8.523, 2.93 µM): 63.294 % control and 62.615 % control | Kinase activity (% control) (PKCε; [ATP] 11.67 µM, M -6, 11.67 µM): 4.132 % control and 3.783 % control | Kinase activity (% control) (PKCε; [ATP] 11.67 µM, M -6.523, 11.67 µM): 10.586 % control and 9.278 % control | Kinase activity (% control) (PKCε; [ATP] 11.67 µM, M -7, 11.67 µM): 20.490 % control and 19.346 % control | Kinase activity (% control) (PKCε; [ATP] 11.67 µM, M -7.523, 11.67 µM): 38.625 % control and 36.759 % control | Kinase activity (% control) (PKCε; [ATP] 11.67 µM, M -8, 11.67 µM): 63.930 % control and 57.174 % control | Kinase activity (% control) (PKCε; [ATP] 11.67 µM, M -8.523, 11.67 µM): 75.246 % control and 100.913 % control and 75.385 % control | Kinase activity (% control) (PKCε; [ATP] 49 µM, M -6, 49 µM): 10.798 % control and 9.001 % control | Kinase activity (% control) (PKCε; [ATP] 49 µM, M -6.523, 49 µM): 25.250 % control and 20.067 % control | Kinase activity (% control) (PKCε; [ATP] 49 µM, M -7, 49 µM): 46.048 % control and 35.068 % control | Kinase activity (% control) (PKCε; [ATP] 49 µM, M -7.523, 49 µM): 52.594 % control and 73.832 % control and 56.661 % control | Kinase activity (% control) (PKCε; [ATP] 49 µM, M -8, 49 µM): 73.818 % control and 104.476 % control and 73.273 % control | Kinase activity (% control) (PKCε; [ATP] 49 µM, M -8.523, 49 µM): 102.193 % control and 87.045 % control | Kinase activity (% control) (PKCε; [ATP] 187 µM, M -6, 187 µM): 22.653 % control and 20.507 % control | Kinase activity (% control) (PKCε; [ATP] 187 µM, M -6.523, 187 µM): 46.882 % control and 37.693 % control | Kinase activity (% control) (PKCε; [ATP] 187 µM, M -7, 187 µM): 75.602 % control and 55.920 % control | Kinase activity (% control) (PKCε; [ATP] 187 µM, M -7.523, 187 µM): 95.087 % control and 100.001 % control and 71.937 % control | Kinase activity (% control) (PKCε; [ATP] 187 µM, M -8, 187 µM): 104.191 % control and 87.275 % control | Kinase activity (% control) (PKCε; [ATP] 187 µM, M -8.523, 187 µM): 106.161 % control and 97.914 % control | Kinase activity (% control) (PKCε; [ATP] 750 µM, M -5.523, 750 µM): 21.316 % control and 15.871 % control | Kinase activity (% control) (PKCε; [ATP] 750 µM, M -6, 750 µM): 49.150 % control and 51.871 % control | Kinase activity (% control) (PKCε; [ATP] 750 µM, M -6.523, 750 µM): 85.111 % control and 100.290 % control and 67.168 % control | Kinase activity (% control) (PKCε; [ATP] 750 µM, M -7, 750 µM): 106.868 % control and 86.984 % control | Kinase activity (% control) (PKCε; [ATP] 750 µM, M -7.523, 750 µM): 104.196 % control and 100.982 % control | Kinase activity (% control) (PKCε; [ATP] 750 µM, M -8, 750 µM): 105.985 % control and 104.633 % control | Kinase activity (% control) (PKCε; [ATP] 750 µM, M -8.523, 750 µM): 106.157 % control and 106.288 % control | Mode of inhibition of PKCε (PKCε; rightward shift at higher [ATP]): competing with ATP | Plasma stability (in words) (Plasma stability; human plasma): good | % Absolute (Plasma stability; time 0 min, individual replicates): 98.366% and 71.452% and 77.756% | % Absolute (Plasma stability; time 15 min, individual replicates): 34.724% and 41.198% and 31.011% | % Absolute (Plasma stability; time 30 min, individual replicates): 46.894% and 51.340% and 53.939% | % Absolute (Plasma stability; time 60 min, individual replicates): 48.950% and 36.305% and 40.476% | Plasma stability Cl (Plasma stability; human plasma, 37°C): 0.46 ± 0.04 µL/min | Cl (clearance) (Plasma stability; human plasma, individual replicates): 0.504 and 0.448 and 0.437 | t1/2 (half life) (Plasma stability; human plasma, individual replicates, time axis in min, in min): 92.829 and 95.187 | k (Plasma stability; human plasma, slope of Ln Transform vs Time (min), individual replicates): -0.008 and -0.00747 and -0.007 | half-life (Plasma stability; human plasma, Plasma stability t½ (min), 37°C): 1.5 ± 0.113 h | half-life (Plasma stability; plasma, t1/2 (half life), Mean, human plasma, mean of replicates, time axis in min): 1.5 h | half-life (Plasma stability; plasma, t1/2 (half life), human plasma, individual replicates, time axis in min): 1.37 h
